Columns and labels:
Format in all cases: physicochemical
[1] = physical and chemical stability of the crystalline complex; details: under various environmental conditions and during the production of a medicament
[2] = mechanical stability of the crystals (grinding); details: allows grinding of the crystals
[3] = tendency to absorb moisture

N#Cc1ccc([C@@H]2O[C@H](CO)[C@@H](O)[C@H](O)[C@H]2O)cc1Cc1ccc(C2CC2)cc1.O=C(O)[C@@H]1CCCN1 [crystalline complex]
physical and chemical stability [1]: high physical and chemical stability | mechanical stability [2]: high mechanical stability | tendency to absorb moisture [3]: does not show a high tendency to absorb moisture

From US9145434B2 (Boehringer Ingelheim International GmbH, priority 2012, dated 2015)
